From PubChem BioAssay (NCI)
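Briefly, cells in 96-well plates were exposed to five compound concentrations for 48 h, and endpoints were estimated by linear interpolation. GI50: concentration for 50% inhibition of growth. Definition used: TGI = concentration required for complete inhibition of growth.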

What was measured:
Test in all cases: NCI tumour cell line growth inhibition, 48 h
786-0 renal = tested on: 786-0 renal
A498 renal = tested on: A498 renal
A549 NSCLC = tested on: A549 NSCLC
ACHN renal = tested on: ACHN renal
BT-549 breast = tested on: BT-549 breast
CAKI-1 renal = tested on: CAKI-1 renal
COLO 205 colon = tested on: COLO 205 colon
DU-145 prostate = tested on: DU-145 prostate
EKVX NSCLC = tested on: EKVX NSCLC
HCC-2998 colon = tested on: HCC-2998 colon
HCT-116 colon = tested on: HCT-116 colon
HCT-15 colon = tested on: HCT-15 colon
HL-60(TB) leukemia = tested on: HL-60(TB) leukemia
HOP-62 NSCLC = tested on: HOP-62 NSCLC
HOP-92 NSCLC = tested on: HOP-92 NSCLC
HS 578T breast = tested on: HS 578T breast
HT29 colon = tested on: HT29 colon
IGROV1 ovarian = tested on: IGROV1 ovarian
KM12 colon = tested on: KM12 colon
LOX IMVI melanoma = tested on: LOX IMVI melanoma
M14 melanoma = tested on: M14 melanoma
MCF7 breast = tested on: MCF7 breast
MDA-MB-231 breast = tested on: MDA-MB-231 breast
MDA-MB-435 = tested on: MDA-MB-435
NCI-H226 lung = tested on: NCI-H226 lung
NCI-H460 lung = tested on: NCI-H460 lung
NCI-H522 lung = tested on: NCI-H522 lung
NCI/ADR-RES ovarian = tested on: NCI/ADR-RES ovarian
OVCAR-4 ovarian = tested on: OVCAR-4 ovarian
OVCAR-5 ovarian = tested on: OVCAR-5 ovarian
OVCAR-8 ovarian = tested on: OVCAR-8 ovarian
SF-295 CNS = tested on: SF-295 CNS
SF-539 CNS = tested on: SF-539 CNS
SK-MEL-2 melanoma = tested on: SK-MEL-2 melanoma
SK-MEL-28 melanoma = tested on: SK-MEL-28 melanoma
SK-MEL-5 melanoma = tested on: SK-MEL-5 melanoma
SK-OV-3 ovarian = tested on: SK-OV-3 ovarian
SN12C renal = tested on: SN12C renal
SNB-19 CNS = tested on: SNB-19 CNS
SNB-75 CNS = tested on: SNB-75 CNS
SW-620 colon = tested on: SW-620 colon
T-47D breast = tested on: T-47D breast
TK-10 renal = tested on: TK-10 renal
U251 CNS = tested on: U251 CNS
UACC-257 melanoma = tested on: UACC-257 melanoma
UACC-62 melanoma = tested on: UACC-62 melanoma
UO-31 renal = tested on: UO-31 renal

Nc1nc(N)c2c(n1)NC(c1ccccc1)CC(c1ccc(Nc3nc(NCCO)nc(Nc4ccc(Cl)cc4)n3)cc1)=N2 (centres undefined)
GI50 (786-0 renal): 1.63 µM | TGI (786-0 renal): 3.08 µM | GI50 (A498 renal): 1.54 µM | TGI (A498 renal): 3.03 µM | GI50 (A549 NSCLC): 2.84 µM | TGI (A549 NSCLC): 9.18 µM | GI50 (ACHN renal): 1.95 µM | TGI (ACHN renal): 4.36 µM | GI50 (BT-549 breast): 1.77 µM | TGI (BT-549 breast): 3.2 µM | GI50 (CAKI-1 renal): 2.3 µM | TGI (CAKI-1 renal): 5.79 µM | GI50 (COLO 205 colon): 1.79 µM | TGI (COLO 205 colon): 3.31 µM | GI50 (DU-145 prostate): 1.8 µM | TGI (DU-145 prostate): 3.38 µM | GI50 (EKVX NSCLC): 1.64 µM | TGI (EKVX NSCLC): 3.17 µM | GI50 (HCC-2998 colon): 1.68 µM | TGI (HCC-2998 colon): 3.1 µM | GI50 (HCT-116 colon): 1.51 µM | TGI (HCT-116 colon): 2.84 µM | GI50 (HCT-15 colon): 1.38 µM | TGI (HCT-15 colon): 2.84 µM | GI50 (HL-60(TB) leukemia): 0.319 µM | TGI (HL-60(TB) leukemia): 1.48 µM | GI50 (HOP-62 NSCLC): 1.74 µM | TGI (HOP-62 NSCLC): 3.24 µM | GI50 (HOP-92 NSCLC): 1.42 µM | TGI (HOP-92 NSCLC): 3.09 µM | GI50 (HS 578T breast): 1.98 µM | TGI (HS 578T breast): 5.15 µM | GI50 (HT29 colon): 1.77 µM | TGI (HT29 colon): 3.33 µM | GI50 (IGROV1 ovarian): 1.56 µM | TGI (IGROV1 ovarian): 3.13 µM | GI50 (KM12 colon): 1.9 µM | TGI (KM12 colon): 3.54 µM | GI50 (LOX IMVI melanoma): 1.54 µM | TGI (LOX IMVI melanoma): 2.95 µM | GI50 (M14 melanoma): 1.84 µM | TGI (M14 melanoma): 3.35 µM | GI50 (MCF7 breast): 1.51 µM | TGI (MCF7 breast): 3.04 µM | GI50 (MDA-MB-231 breast): 1.75 µM | TGI (MDA-MB-231 breast): 3.48 µM | GI50 (MDA-MB-435): 1.74 µM | TGI (MDA-MB-435): 3.17 µM | GI50 (NCI-H226 lung): 11.5 µM | TGI (NCI-H226 lung): 31.3 µM | GI50 (NCI-H460 lung): 1.85 µM | TGI (NCI-H460 lung): 3.47 µM | GI50 (NCI-H522 lung): 1.79 µM | TGI (NCI-H522 lung): 3.48 µM | GI50 (NCI/ADR-RES ovarian): 4.33 µM | TGI (NCI/ADR-RES ovarian): > 100 µM | GI50 (OVCAR-4 ovarian): 1.72 µM | TGI (OVCAR-4 ovarian): 3.76 µM | GI50 (OVCAR-5 ovarian): 1.94 µM | TGI (OVCAR-5 ovarian): 3.75 µM | GI50 (OVCAR-8 ovarian): 1.46 µM | TGI (OVCAR-8 ovarian): 3.1 µM | GI50 (SF-295 CNS): 1.57 µM | TGI (SF-295 CNS): 2.97 µM | GI50 (SF-539 CNS): 1.6 µM | TGI (SF-539 CNS): 3.06 µM | GI50 (SK-MEL-2 melanoma): 1.38 µM | TGI (SK-MEL-2 melanoma): 2.78 µM | GI50 (SK-MEL-28 melanoma): 1.73 µM | TGI (SK-MEL-28 melanoma): 3.12 µM | GI50 (SK-MEL-5 melanoma): 1.42 µM | TGI (SK-MEL-5 melanoma): 2.72 µM | GI50 (SK-OV-3 ovarian): 17.7 µM | TGI (SK-OV-3 ovarian): 32 µM | GI50 (SN12C renal): 1.74 µM | TGI (SN12C renal): 3.54 µM | GI50 (SNB-19 CNS): 1.58 µM | TGI (SNB-19 CNS): 2.99 µM | GI50 (SNB-75 CNS): 1.56 µM | TGI (SNB-75 CNS): 3.13 µM | GI50 (SW-620 colon): 1.87 µM | TGI (SW-620 colon): 3.48 µM | GI50 (T-47D breast): 1.52 µM | TGI (T-47D breast): 3.32 µM | GI50 (TK-10 renal): 2.09 µM | TGI (TK-10 renal): 3.87 µM | GI50 (U251 CNS): 1.53 µM | TGI (U251 CNS): 2.99 µM | GI50 (UACC-257 melanoma): 1.9 µM | TGI (UACC-257 melanoma): 3.49 µM | GI50 (UACC-62 melanoma): 1.84 µM | TGI (UACC-62 melanoma): 3.32 µM | GI50 (UO-31 renal): 1.87 µM | TGI (UO-31 renal): 4.29 µM
